Experimental data reported in the supplement of paper PMC11061612.

How the values were obtained:
Experiment in all cases: Bliss excess, mean over the matrix (fraction); higher = more synergy
[1] = tested on: OCI-AML5 (Acute Myeloid Leukemia)
How it was run: (§1)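 Cell lines in DMEM/F12 or RPMI with 10% FBS were plated in 1536-well plates, held 24 hours at 37°C, 5% CO2, then given two-drug dose matrices for 72 hours (DMSO typically 0.2%). Viability was read by CellTiter-Glo 2.0 luminescence and scaled as inhibition from 0 (vehicle wells) to 1 (blank wells). Combination Emax is the second-highest inhibition in the matrix; Bliss excess is observed combination effect minus expected EA + EB − EA·EB, EA and EB being single-agent effects.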

[2] = tested on: OV-90 (Ovarian Carcinoma)
How it was run: as §1

[3] = tested on: HSC-3 (Oral Cavity Carcinoma)
How it was run: as §1

[4] = tested on: EB-3 (Burkitt's Lymphoma)
How it was run: as §1

[5] = tested on: COLO-684 (Endometrial Carcinoma)
How it was run: as §1

CHL-1 (Melanoma) = tested on: CHL-1 (Melanoma)
How it was run: as §1

[6] = tested on: AsPC-1 (Pancreatic Carcinoma)
How it was run: as §1

[7] = tested on: NCI-H196 (Small Cell Lung Carcinoma)
How it was run: as §1

786-0 (Kidney Carcinoma) = tested on: 786-0 (Kidney Carcinoma)
How it was run: as §1

[8] = tested on: NCI-H1755 (Lung Adenocarcinoma)
How it was run: as §1

HuO-3N1 (Osteosarcoma) = tested on: HuO-3N1 (Osteosarcoma)
How it was run: as §1

[9] = tested on: PANC-02-03 (Pancreatic Carcinoma)
How it was run: as §1

[10] = tested on: NCI-H1623 (Lung Adenocarcinoma)
How it was run: as §1

[11] = tested on: PC-14 (Lung Adenocarcinoma)
How it was run: as §1

[12] = tested on: FLO-1 (Esophageal Adenocarcinoma)
How it was run: as §1

KYM-1 (Rhabdomyosarcoma) = tested on: KYM-1 (Rhabdomyosarcoma)
How it was run: as §1

[13] = tested on: AN3-CA (Endometrial Carcinoma)
How it was run: as §1

[14] = tested on: Caov-3 (Ovarian Carcinoma)
How it was run: as §1

[15] = tested on: NCI-H1155 (Non-Small Cell Lung Carcinoma)
How it was run: as §1

[16] = tested on: SNU-175 (Colorectal Carcinoma)
How it was run: as §1

| Structure (SMILES) | Bliss excess [1] | Bliss excess [2] | Bliss excess [3] | Bliss excess [4] | Bliss excess [5] | Bliss excess (CHL-1 (Melanoma)) | Bliss excess [6] | Bliss excess [7] | Bliss excess (786-0 (Kidney Carcinoma)) | Bliss excess [8] | Bliss excess (HuO-3N1 (Osteosarcoma)) | Bliss excess [9] | Bliss excess [10] | Bliss excess [11] | Bliss excess [12] | Bliss excess (KYM-1 (Rhabdomyosarcoma)) | Bliss excess [13] | Bliss excess [14] | Bliss excess [15] | Bliss excess [16] |
| --- | --- | --- | --- | --- | --- | --- | --- | --- | --- | --- | --- | --- | --- | --- | --- | --- | --- | --- | --- | --- |
| Cc1c2c(nn1C)CSCc1cc(n(C)n1)CSc1cc(c3ccccc3c1)OCCCc1c(C(=O)O)n(C)c3c-2c(Cl)ccc13 [AZD5991] + Cn1cnc2c(F)c(Nc3ccc(Br)cc3Cl)c(C(=O)NOCCO)cc21 [Selumetinib] (first compound max 1 µM, 7x7, partner max 3 µM) | 0.0422 | -0.0143 | 0.0137 | -0.0424 | -0.0177 | -0.0031 | -0.0325 | -0.0374 | 0.0107 | 0.0427 | -0.0008 | -0.003 | 0.0184 | 0.0286 | -0.055 | 0.0084 | 0.0158 | 0.0536 | 0.0008 |  |
| NC1(C(=O)N[C@@H](CCO)c2ccc(Cl)cc2)CCN(c2ncnc3[nH]ccc23)CC1 [Capivasertib] + C[C@@H]1COCCN1C2=NC(=NC(=C2)C3(CC3)[S@](=N)(=O)C)C4=C5C=CNC5=NC=C4 [AZD6738] (first compound max 10 µM, 7x7, partner max 10 µM) | -0.017 | -0.0159 | -0.0346 | -0.0579 | -0.0262 | -0.0329 | -0.0359 | -0.0265 | -0.0708 | -0.0244 | -0.11 | -0.004 | -0.0522 | -0.0355 | -0.0933 | -0.0693 | -0.0526 |  | -0.0362 | -0.0099 |
| NC1(C(=O)N[C@@H](CCO)c2ccc(Cl)cc2)CCN(c2ncnc3[nH]ccc23)CC1 [Capivasertib] + Cn1cnc2c(F)c(Nc3ccc(Br)cc3Cl)c(C(=O)NOCCO)cc21 [Selumetinib] (first compound max 10 µM, 7x7, partner max 10 µM) | 0.0645 | -0.0313 | 0.0081 | -0.0424 | -0.0343 | 0.0588 | -0.039 | -0.0436 | 0.0614 | 0.0295 | -0.0321 | 0.0589 | 0.0623 | 0.0938 | 0.0307 | -0.0072 | -0.0016 |  | 0.0293 | -0.0408 |
| Cc1nc(Nc2ncc(C(=O)Nc3c(C)cccc3Cl)s2)cc(N2CCN(CCO)CC2)n1 [Dasatinib] + CC(=O)Nc1cccc(-n2c(=O)n(C3CC3)c(=O)c3c(Nc4ccc(I)cc4F)n(C)c(=O)c(C)c32)c1 [Trametinib] (first compound max 2 µM, 7x7, partner max 1 µM) | -0.0515 | -0.0067 | -0.0444 | -0.0156 | -0.0482 | 0.0137 | 0.0506 | -0.0634 | -0.0592 | -0.0052 | -0.159 | 0.0762 | -0.0775 | 0.0079 | 0.122 | -0.0178 | -0.168 |  | -0.0132 | -0.0992 |
| COc1cc2ncnc(Nc3ccc(F)c(Cl)c3)c2cc1OCCCN1CCOCC1 [Gefitinib] + CC(C)n1c(=O)n(C)c2cnc3cc(F)c(-c4ccc(OCCCN5CCCCC5)nc4)cc3c21 [AZD1390] (first compound max 10 µM, 7x7, partner max 0.3 µM) | -0.051 | -0.0468 | -0.0649 | -0.0192 | -0.0395 | -0.0472 | -0.0975 | -0.0685 | -0.0652 | -0.0854 | -0.0756 | -0.0431 | -0.0268 | -0.0565 | -0.0696 | -0.0515 | -0.0592 |  | -0.056 | -0.0457 |
| CS(=O)(=O)CCNCc1ccc(-c2ccc3ncnc(Nc4ccc(OCc5cccc(F)c5)c(Cl)c4)c3c2)o1 [Lapatinib] + C[C@@H](Oc1cc(-c2cnn(C3CCNCC3)c2)cnc1N)c1c(Cl)ccc(F)c1Cl [Crizotinib] (first compound max 10 µM, 7x7, partner max 10 µM) | -0.003 | -0.0019 | -0.0395 | -0.0572 | -0.0364 | -0.0393 | -0.031 | -0.0564 | -0.0666 | -0.0468 | -0.0423 | -0.0617 | 0.0555 | -0.028 | -0.0535 | -0.0515 | -0.0223 |  | -0.0185 | -0.0001 |
| CC(=O)c1c(C)c2cnc(Nc3ccc(N4CCNCC4)cn3)nc2n(C2CCCC2)c1=O [Palbociclib] + CC1(C)CCC(CN2CCN(c3ccc(C(=O)NS(=O)(=O)c4ccc(NCC5CCOCC5)c([N+](=O)[O-])c4)c(Oc4cnc5[nH]ccc5c4)c3)CC2)=C(c2ccc(Cl)cc2)C1 [Venetoclax] (first compound max 10 µM, 7x7, partner max 1 µM) | 0.0436 | -0.0553 | 0.0148 | -0.0455 | -0.0614 | -0.0357 | -0.0715 | -0.0608 | 0.0042 | 0.0337 | -0.0312 | -0.0319 | 0.011 | -0.0198 | -0.019 | -0.0392 | -0.024 |  | 0.0241 | 0.0639 |
| CC(=O)c1c(C)c2cnc(Nc3ccc(N4CCNCC4)cn3)nc2n(C2CCCC2)c1=O [Palbociclib] + Cc1c2c(nn1C)CSCc1cc(n(C)n1)CSc1cc(c3ccccc3c1)OCCCc1c(C(=O)O)n(C)c3c-2c(Cl)ccc13 [AZD5991] (first compound max 10 µM, 7x7, partner max 1 µM) | 0.0572 | -0.0568 | -0.0811 | -0.0271 | -0.0173 | 0.0344 | -0.0859 | -0.0784 | 0.0201 | -0.0188 | -0.0972 | -0.0522 | -0.0321 | -0.0106 | 0.0084 | 0.0337 | -0.0305 |  | -0.059 | -0.0496 |
| CC(=O)c1c(C)c2cnc(Nc3ccc(N4CCNCC4)cn3)nc2n(C2CCCC2)c1=O [Palbociclib] + Cn1cnc2c(F)c(Nc3ccc(Br)cc3Cl)c(C(=O)NOCCO)cc21 [Selumetinib] (first compound max 10 µM, 7x7, partner max 10 µM) | 0.0868 | 0.0151 | -0.0418 | -0.0727 | -0.04 | -0.0342 | -0.0664 | -0.0617 | 0.0079 | 0.0425 | -0.0601 | 0.0334 | 0.0398 | 0.0408 | 0.0209 | -0.0022 | -0.0278 |  | -0.0201 | 0.0599 |
| C[C@@H](c1ccc2nccn2c1)n1nnc2ncc(-c3cnn(C)c3)nc21 [Savolitinib] + CC1(C)CCC(CN2CCN(c3ccc(C(=O)NS(=O)(=O)c4ccc(NCC5CCOCC5)c([N+](=O)[O-])c4)c(Oc4cnc5[nH]ccc5c4)c3)CC2)=C(c2ccc(Cl)cc2)C1 [Venetoclax] (first compound max 1 µM, 7x7, partner max 1 µM) | -0.031 | -0.063 | -0.0383 | -0.0614 | -0.0458 | -0.0511 | -0.0743 | -0.067 | -0.0848 | -0.05 | -0.0708 | -0.0231 | -0.046 | -0.0276 | -0.0752 | -0.0133 | -0.0499 |  | -0.0365 | -0.0764 |
| C[C@@H](c1ccc2nccn2c1)n1nnc2ncc(-c3cnn(C)c3)nc21 [Savolitinib] + Cc1c2c(nn1C)CSCc1cc(n(C)n1)CSc1cc(c3ccccc3c1)OCCCc1c(C(=O)O)n(C)c3c-2c(Cl)ccc13 [AZD5991] (first compound max 1 µM, 7x7, partner max 1 µM) | -0.0178 | -0.0519 | -0.018 | -0.076 | -0.0158 | -0.023 | -0.118 | -0.0675 | -0.0331 | -0.0361 | -0.0631 | -0.0374 | -0.0195 | -0.0134 | -0.032 | -0.0309 | -0.0365 |  | -0.0188 | -0.0713 |
| Cn1cnc2c(F)c(Nc3ccc(Br)cc3Cl)c(C(=O)NOCCO)cc21 [Selumetinib] + C=CCn1c(=O)c2cnc(Nc3ccc(N4CCN(C)CC4)cc3)nc2n1-c1cccc(C(C)(C)O)n1 [AZD1775] (first compound max 10 µM, partner max 1 µM) | 0.036 | -0.0274 | -0.0355 | -0.0729 | -0.0323 | -0.0386 | -0.046 | -0.0704 | -0.0543 | 0.0496 | -0.0972 | -0.0033 | -0.0223 | -0.0475 | -0.0108 | -0.0696 | -0.0495 |  | -0.0474 | -0.0174 |
| Cn1cnc2c(F)c(Nc3ccc(Br)cc3Cl)c(C(=O)NOCCO)cc21 [Selumetinib] + CC(C)n1c(=O)n(C)c2cnc3cc(F)c(-c4ccc(OCCCN5CCCCC5)nc4)cc3c21 [AZD1390] (first compound max 10 µM, 7x7, partner max 0.3 µM) | -0.0198 | 0.0131 | -0.0424 | -0.0806 | -0.0257 | -0.0482 | -0.0093 | -0.0561 | -0.0587 | 0.0153 | -0.0618 | -0.0139 | 0.0076 | -0.0015 | -0.0276 | -0.0207 | -0.0669 |  | -0.0679 | 0.0063 |
| Cn1cnc2c(F)c(Nc3ccc(Br)cc3Cl)c(C(=O)NOCCO)cc21 [Selumetinib] + CCN(CCO)CCCOc1ccc2c(Nc3cc(CC(=O)Nc4cccc(F)c4)[nH]n3)ncnc2c1 [AZD2811] (first compound max 10 µM, 7x7, partner max 1 µM) | -0.0225 | -0.0252 | -0.0877 | -0.0415 | -0.0211 | -0.0579 | 0.0032 | -0.057 | -0.0344 | 0.0386 | -0.106 | -0.0144 | 0.0134 | 0.0372 | -0.0448 | -0.0102 | 0.0242 |  | 0.0907 | -0.0253 |
| Cn1cnc2c(F)c(Nc3ccc(Br)cc3Cl)c(C(=O)NOCCO)cc21 [Selumetinib] + C[C@@H]1COCCN1C2=NC(=NC(=C2)C3(CC3)[S@](=N)(=O)C)C4=C5C=CNC5=NC=C4 [AZD6738] (first compound max 10 µM, 7x7, partner max 10 µM) | 0.0024 | 0.0049 | 0.0049 | -0.069 | -0.0474 | -0.0498 | 0.0716 | -0.0607 | -0.0735 | 0.012 | -0.0994 | 0.04 | 0.0028 | -0.0022 | -0.0137 | -0.033 | 0.0359 |  | -0.0028 | 0.0644 |
